Assay results taken from PubChem BioAssay (NCI).
“And” between values parts separate entries of the source, which are not always exact repeats. Equal entries are not always repeated.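 Following 48 hours of exposure in 96-well plates, responses at five concentrations were used to interpolate endpoints linearly. GI50 is the concentration that inhibits growth by half. At the TGI there is no net growth.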

What was measured:
Assay in all cases: growth of human tumour cells (NCI), 48 h
SF-295 CNS = test system: SF-295 CNS
K-562 leukemia = test system: K-562 leukemia
HCC-2998 colon = test system: HCC-2998 colon
HT29 colon = test system: HT29 colon
MCF7 breast = test system: MCF7 breast
SK-MEL-28 melanoma = test system: SK-MEL-28 melanoma
SN12C renal = test system: SN12C renal
T-47D breast = test system: T-47D breast
UACC-257 melanoma = test system: UACC-257 melanoma
HS 578T breast = test system: HS 578T breast

SMILES | GI50 (SF-295 CNS) [nM] | TGI (SF-295 CNS) | GI50 (K-562 leukemia) [nM] | TGI (K-562 leukemia) | GI50 (HCC-2998 colon) [µM] | TGI (HCC-2998 colon) [µM] | GI50 (HT29 colon) [nM] | TGI (HT29 colon) | GI50 (MCF7 breast) [nM] | TGI (MCF7 breast) | GI50 (SK-MEL-28 melanoma) [µM] | TGI (SK-MEL-28 melanoma) | GI50 (SN12C renal) [nM] | TGI (SN12C renal) | GI50 (T-47D breast) [µM] | TGI (T-47D breast) [µM] | GI50 (UACC-257 melanoma) [µM] | TGI (UACC-257 melanoma) | GI50 (HS 578T breast) [µM] | TGI (HS 578T breast) [µM]
COc1cc2nc3sc(C(=O)Nc4ccc(C(=O)OC(C)C)cc4)c(C(=O)Nc4ccc(Cl)cc4C)n3c(=O)c2cc1OC | 11200 | 29 µM | 5290 | > 100 µM | 9.5 | > 100 | 3180 | > 100 µM | 14100 | > 100 µM | 46.2 | > 100 µM | 22800 | 71.1 µM | 5.59 | 54.6 | 18.4 | 93.2 µM | 1.6 | 7.7
C[n+]1c(/C=C\c2ccc(Cl)cc2)ccc2ccccc21 | 13800 | > 100 µM | 8690 | > 100 µM | 31.6 | > 100 | 19400 | > 100 µM | 20200 | > 100 µM | 13.6 | 54.3 µM | 4130 | 84 µM | 21.8 | > 100 | 16.2 | 62.4 µM | 27.4 | > 100
Cc1cc(N2CCCCC2)nc(N(CCCNc2ccnc3cc(Cl)ccc23)Cc2ccco2)n1 | 1290 | 3.59 µM | 1380 | 5.37 µM | 1.97 | 4.39 | 1200 | 4.95 µM | 1810 | 5.13 µM | 1.62 | 3.28 µM | 2140 | 7.15 µM | 1.77 | 4.44 | 2.35 | 5.21 µM | 3.02 | 11.4
C[C@@H]1CN(C(=O)c2ccc(NC(=O)c3cc(O[C@H](C)c4c(Cl)ccc(F)c4Cl)c(N)nn3)cc2)C[C@H](C)N1 | 1110 | 10.5 µM | 370 | 10.2 µM | 14.5 | 29.1 | 1190 | 3.46 µM | 567 | 12.6 µM | 1.75 | 3.86 µM | 2410 | 13.6 µM | 4.51 | 20.5 | 1.39 | 3.2 µM | 3.02 | 21.9
COC(=O)NC1C(C)OC(OC2C/C=C(/C)C3C=CC4C(OC5CC(OC6CC(O)C(OC7CC(O)C(OC)C(C)O7)C(C)O6)C(O)C(C)O5)C(C)CC(C)C4C3(C)/C(O)=C3\C(=O)OC4(CC(C)C(CO)=CC4/C=C\2C)C3=O)CC1(C)[N+](=O)[O-] (stereo not given) | – | 50 µM and 38.9 µM | 3640 | 14.7 µM and 71.8 µM | – | 31.6 | 8340 | 15.9 µM and 35.9 µM | 11800 | 44 µM and 13.3 µM | 9 | 16.6 µM and 36 µM | 9650 | 29.1 µM and 40 µM | – | 31.8 | 8.28 | 16.4 µM and 29.4 µM | – | 40.4
C=C1C(=O)O[C@@H]2C[C@@]3(C)CCC[C@H](C)C3=C[C@H]12 | – | 34.5 µM | – | 31.2 µM | – | 29.1 | – | 16.1 µM | – | 17.2 µM | – | 20.5 µM | – | 12.5 µM | – | 9.36 | – | 20.1 µM | – | 19.1
COc1ccc(-c2[nH]c3ccccc3c2C=C(C#N)C#N)cc1 | 331 | 6.3 µM | – | – | 0.67 | 3.16 | 371 | > 100 µM | 346 | > 100 µM | 1.14 | > 39.3 µM | 1150 | > 100 µM | 0.481 | > 100 | > 20.6 | > 100 µM | 0.201 | –
CC[C@H](C)[C@H]1NC(=O)[C@@H](N[C@](C)(O)[C@@H](N)CC(C)C)[C@@H](C)OC(=O)[C@H](Cc2ccc(OC)cc2)N(C)C(=O)[C@@H]2CCCN2C(=O)[C@H](CC(C)C)NC(=O)[C@@H](C)C(=O)[C@H](C(C)C)OC(=O)C[C@@H]1O | – | – | 15.6 | 1.8 µM | 0.0197 | 0.361 | 6.95 | 0.702 µM | 7.35 | 0.166 µM | 0.0117 | 0.0954 µM | 11.5 | 0.316 µM | 0.00897 | 0.301 | 0.0408 | 0.337 µM | 0.0164 | 0.467
Oc1ccc2cc(Br)ccc2c1-c1c(O)ccc2cc(Br)ccc12 | 2460 | 6.79 µM | 2880 | 11.1 µM | 2.22 | 4.8 | 1750 | 3.34 µM | 2490 | 6.76 µM | 3.68 | 13.1 µM | 2040 | 4.81 µM | 4.61 | 17.3 | 10.1 | 22.6 µM | 3.7 | 23.3
CCOc1cccc(/C=N/NC(=O)c2ccc(Nc3ccnc(C(F)(F)F)c3)cc2)c1O | 1280 | 40.6 µM | 947 | > 31.6 µM | 1.49 | > 20.4 | 4380 | > 73.5 µM | 700 | > 59 µM | 1.63 | > 58.5 µM | 2450 | > 100 µM | 0.984 | 19.4 | 0.728 | > 21.1 µM | 6.31 | > 100
C1=Cc2ccccc2Nc2ccccc21 | > 100000 | > 100 µM | > 100000 | > 100 µM | > 100 | > 100 | > 100000 | > 100 µM | 74700 | > 100 µM | > 100 | > 100 µM | > 100000 | > 100 µM | > 100 | > 100 | > 100 | > 100 µM | > 100 | > 100
Cn1ccnc1C(=O)/C=C/c1ccc(C(=O)Nc2ccc(Cl)cc2)cc1 | 1460 | 6.11 µM | 646 | > 33.3 µM | 0.655 | 1.43 | 946 | > 33.3 µM | 899 | 24.1 µM | 3.7 | 9.89 µM | 1010 | 5.07 µM | 0.846 | > 33.3 | 2.48 | > 33.3 µM | 0.919 | > 33.3
Cn1nccc1Nc1nccc(-c2cc3c(s2)C(C)(C)N(CCN2CCOCC2)C3=O)n1 | > 89900 | > 100 µM | 11700 | > 100 µM | 0.602 | > 100 | 277 | > 100 µM | 24100 | > 100 µM | 0.348 | > 100 µM | 17100 | > 100 µM | 17.4 | > 77.7 | 0.301 | > 100 µM | 15.9 | > 100
O=C(CN1CCN(c2ncnc3ccccc23)CC1)Nc1ccc(Cl)cc1C(=O)c1ccccc1Cl | 1110 | 6.07 µM | 838 | > 52.4 µM | 1.79 | 4.96 | 394 | 9.4 µM | 636 | 13.1 µM | 1.03 | 3.36 µM | 943 | – | 0.339 | 3.25 | 2.04 | 6.69 µM | 0.478 | 3.7
O=C(Nc1ccccc1O)c1cccc(NC2=C(Cl)C(=O)N(Cc3ccccc3)C2=O)c1 | 4460 | 12.5 µM | 2150 | 9.06 µM | 3.33 | 13.4 | 7050 | > 100 µM | 2700 | 14.8 µM | 7.23 | 20.5 µM | 2220 | 7.57 µM | 8.06 | 28.6 | 4.44 | 16.6 µM | 5.28 | 17.8
COc1ccc(CCN2C(=O)C=CC2=O)cc1OC | – | 33.5 µM | – | > 100 µM | – | 34.8 | – | 13.7 µM | – | 39.7 µM | – | 31.4 µM | – | 32.5 µM | – | 31.9 | – | 30.9 µM | – | 99.6
CN(C)c1ccc(N2Cc3ccccc3OC3=C2C(=O)c2c(O)ccc(O)c2C3=O)cn1 | 1800 | 4.32 µM | 177 | 1.58 µM | 1.18 | 2.58 | 232 | 0.578 µM | 150 | 0.456 µM | 0.275 | 0.762 µM | 261 | 1.03 µM | 0.258 | 1.27 | 0.311 | 1.14 µM | 0.444 | 26.1
COc1ccc2nc(-c3cc(-c4cc(OC)c(OC)c(OC)c4)n[nH]3)[nH]c2c1 | 1620 | 5.24 µM | 2010 | > 100 µM | 3.03 | 10.6 | 2760 | 16.2 µM | 2150 | 6.66 µM | 1.9 | 5.26 µM | 2060 | 8.45 µM | 0.346 | 1.92 | 1.67 | 3.69 µM | 2.89 | 23.2
O=C1NN(c2ccc(C(=O)O)cc2)C(=O)/C1=C\c1ccc([N+](=O)[O-])o1 | > 100000 | > 100 µM | 27300 | 72.1 µM | > 100 | > 100 | 18600 | 35.8 µM | 22400 | 50.5 µM | > 100 | > 100 µM | 58800 | > 100 µM | 21.4 | 50 | > 100 | > 100 µM | > 100 | > 100
CCOc1c(Br)cc(C2C(C(=O)OC)=CN(C)C=C2C(=O)OC)cc1OC | 57900 | > 100 µM | 50600 | > 100 µM | > 100 | > 100 | 45600 | > 100 µM | 40600 | > 100 µM | > 100 | > 100 µM | 78600 | > 100 µM | 45.9 | > 100 | 72.3 | > 100 µM | 50.4 | > 100
CC(=O)N1N=C2/C(=C/c3ccccc3)CC(C)CC2C1c1ccccc1 (stereo not given) | 15900 | 35.1 µM | 4290 | 20.7 µM | 8.86 | 21.2 | 12900 | 29.9 µM | 10100 | 22.6 µM | 18.5 | 36.5 µM | 14800 | 30.4 µM | 10.7 | 34.7 | 16.5 | 32.6 µM | 15.4 | 34.6
COc1cc(C(=O)c2ccc3c(c2)OCO3)cc(OC)c1OC | 1550 | – | 482 | > 100 µM | 9.73 | > 100 | 502 | 15.5 µM | 824 | > 100 µM | 3.69 | > 100 µM | 6860 | > 100 µM | 5.3 | > 100 | > 100 | > 100 µM | 2.54 | > 26.9
COC(=O)Nc1nc2ccc(Oc3ccc(NC(=O)Nc4cccc(C(=O)O)c4)cc3)cc2[nH]1 | 5610 | > 21.7 µM | 6510 | > 25 µM | 8.44 | > 25 | 7350 | > 25 µM | 4730 | 24.3 µM | 10 | > 25 µM | 11900 | > 25 µM | > 14.2 | > 25 | > 22.2 | > 25 µM | 4.28 | 24.5
COc1ccc2c(c1)c(-c1ccc(-c3cn(S(=O)(=O)c4ccccc4)c4ccc(OC)cc34)s1)cn2S(=O)(=O)c1ccccc1 | > 100000 | > 100 µM | > 100000 | > 100 µM | > 100 | > 100 | > 100000 | > 100 µM | > 100000 | > 100 µM | > 100 | > 100 µM | > 100000 | > 100 µM | > 100 | > 100 | – | – | > 100 | > 100
CC1=CC(=NC(=O)CBr)C=C/C1=N\S(=O)(=O)c1ccccc1 | 15800 | 33.1 µM | 2540 | 6.44 µM | 16.5 | 31.3 | 2580 | 6.7 µM | 1800 | 4.37 µM | 6.25 | 19.4 µM | 1830 | 3.59 µM | 2.1 | 5.04 | – | – | 5.03 | 35.2
